{
  "source": "paper PMC9089912",
  "about": "“Imaging articular cartilage in osteoarthritis using targeted peptide radiocontrast agents” (PLoS ONE, 2022)",
  "key": {"[1]": {"assay": "Ex vivo micro-CT contrast enhancement of murine articular cartilage: DIPIC vs PTA vs iopamidol", "parameters": "species or system mouse", "conditions": "20 mg iodine/ml (PTA: 1% in 70% ethanol); for Thickness of cartilage assessed with the contrast agent: ex vivo mouse tibiae; for Thickness of cartilage assessed with the contrast agent / Difference in X-ray absorption between cartilage and background: micro-CT absorption profile; for X-ray absorption of background / X-ray absorption of cartilage / Difference in X-ray absorption between cartilage and background: overnight incubation of mouse tibiae (n = 3); for X-ray absorption of background / X-ray absorption of cartilage: mean ± SEM", "description": "Ex vivo imaging with DIPIC, PTA or iopamidol. Mice were culled through inhalation of CO2 and their knee joints harvested and split under a dissection microscope. Tibiae (n = 3) were finely dissected to remove soft tissue and incubated overnight either in DIT peptide or iopamidol (Santa Cruz Biotechnology, Dallas, Texas, USA) at 20 mg iodine/ml (20 μl) or 1% PTA (Sigma) in 70% ethanol. To determine the contrast achieved in the articular cartilage at equilibrium, proximal tibiae were imaged by micro-CT while incubated in each contrast agent. […] Following imaging, tibiae were washed in saline and imaged in fresh saline until the articular cartilage could no longer be detected.\nGeneration of colour-coded absorption maps. To calibrate micro-CT scans in Hounsfield units (HU), air and water were scanned and reconstructed. The average grey level intensity within a cylindrical VOI was obtained from image histograms in ImageJ (air = -832.85, water = 152.54). Based on knowledge of the average grey level intensity and the corresponding HU (air = -1000, water = 0), the following linear transformation was derived (equation 2): […]\nUsing this calibration, the grey level intensity of each pixel was linearly transformed into X-ray absorption (HU) for each micro-CT image dataset using Matlab (R2014b, MathWorks, Natick, Massachusetts, USA). To enhance the difference between X-ray absorption of each tissue, colour-coded maps, also expressed in HU, were generated in Matlab by assigning a look up table (LUT) of 256 colours to each image dataset."}, "[2]": {"assay": "Solubility of purified DIT peptides at concentrations needed for radiocontrast", "conditions": "purified peptide (≥ 95% by HPLC), 10% DMSO/water, at 20 mg iodine/ml as well as 2 mg iodine/ml (lowest concentration for contrast)", "source_text": "An integrated design, placing DIT into the core of WYRGRL (3) was followed by the addition of a further DIT at the N-terminus (4). […] To improve solubility, both arginine residues in 3 and 4 were replaced with lysine to give 5 and 6, respectively."}, "[3]": {"molecular_target": "T1, murine articular cartilage (type II collagen) (Mus musculus, UniProt P28481)", "T1 construct": "Fixed cryosections of murine tibiae (10 µm) 24 h after intra-articular injection of Ac-WYRGRL-DOTAM-Cy5.5 or Ac-YRLGRW-DOTAM-Cy5.5; from tissue; host or cells: articular cartilage of the mouse knee joint (in vivo injection, histology of tibial cryosections)", "T1 sequence (P28481 182-1241 limits assumed)": "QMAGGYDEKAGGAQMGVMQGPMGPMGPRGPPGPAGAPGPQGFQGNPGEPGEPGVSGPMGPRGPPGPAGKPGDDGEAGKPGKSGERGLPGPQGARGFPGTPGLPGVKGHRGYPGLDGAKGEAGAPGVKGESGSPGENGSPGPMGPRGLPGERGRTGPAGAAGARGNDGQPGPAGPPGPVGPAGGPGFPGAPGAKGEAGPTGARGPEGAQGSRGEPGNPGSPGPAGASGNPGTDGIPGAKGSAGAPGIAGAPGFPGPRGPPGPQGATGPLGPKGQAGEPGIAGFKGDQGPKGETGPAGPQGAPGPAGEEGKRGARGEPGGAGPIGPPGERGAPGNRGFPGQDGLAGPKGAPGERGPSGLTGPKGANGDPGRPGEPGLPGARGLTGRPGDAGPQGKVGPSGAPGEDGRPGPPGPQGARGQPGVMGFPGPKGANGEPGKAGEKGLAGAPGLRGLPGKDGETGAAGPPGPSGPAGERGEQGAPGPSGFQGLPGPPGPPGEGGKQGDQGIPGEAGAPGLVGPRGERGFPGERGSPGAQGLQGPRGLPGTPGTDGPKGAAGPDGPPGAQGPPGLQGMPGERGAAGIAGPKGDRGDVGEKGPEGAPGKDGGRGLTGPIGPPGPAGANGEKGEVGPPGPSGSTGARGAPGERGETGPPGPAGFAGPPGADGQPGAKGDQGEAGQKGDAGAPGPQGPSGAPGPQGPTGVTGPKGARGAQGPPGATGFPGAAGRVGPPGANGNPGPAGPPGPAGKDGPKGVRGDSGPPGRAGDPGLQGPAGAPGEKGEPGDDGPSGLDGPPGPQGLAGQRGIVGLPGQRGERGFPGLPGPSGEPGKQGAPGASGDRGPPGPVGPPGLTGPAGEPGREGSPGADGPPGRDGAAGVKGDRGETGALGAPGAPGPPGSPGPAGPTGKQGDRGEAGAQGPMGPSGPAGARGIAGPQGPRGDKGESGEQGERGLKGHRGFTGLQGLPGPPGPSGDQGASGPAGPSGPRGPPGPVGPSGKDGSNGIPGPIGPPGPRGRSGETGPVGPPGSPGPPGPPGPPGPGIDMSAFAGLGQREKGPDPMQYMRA", "assay": "Fluorescence histology of murine cartilage after intra-articular injection of DOTAM-Cy5.5 probes", "type": "in vivo", "conditions": "24 h after intra-articular injection into mouse knee joints; probes of ref 20", "description": "Fluorescence immunohistochemistry for localisation of Ac-WYRGRL-DOTAM-Cy5.5. Fixed cryosections of murine tibiae (10 µm) 24 h after intra-articular injection of Ac-WYRGRL-DOTAM-Cy5.5 or Ac-YRLGRW-DOTAM-Cy5.5 [1] were blocked with 10% goat serum, stained with rat anti-heparan sulfate proteoglycan antibody (A7L6, Abcam), washed three times with PBS-Tween 0.05% (v/v), labelled with Alexa Fluor 488 goat anti-rat IgG (H+L, Abcam) and washed three times with PBS-Tween 0.05% (v/v) before imaging. Cryosections were viewed under a Nikon TE2000-U Ultraview confocal microscope (PerkinElmer, Seer Green, UK) using a 488 nm excitation laser with 525 nm emission filter to visualise the Alexa Fluor 488 label (green false colour), and a 640 nm excitation laser with 700 nm emission filter to visualise the Cy5.5 label (red false colour)."}},
  "note": "Entries after “also recorded” stand apart in the source; their conditions may differ. Non-standard residues stand in square brackets, D forms with d. Residues, ends and D or L forms follow the SMILES beside them. Tyr(3,5-I2) = N[C@@H](Cc1cc(I)c(O)c(I)c1)C(=O)O; AEEA = NCCOCCOCC(=O)O",
  "data": [
    {"compound": "O=P(O)(O)O.[O]=[W](=[O])=[O].[O]=[W](=[O])=[O].[O]=[W](=[O])=[O].[O]=[W](=[O])=[O].[O]=[W](=[O])=[O].[O]=[W](=[O])=[O].[O]=[W](=[O])=[O].[O]=[W](=[O])=[O].[O]=[W](=[O])=[O].[O]=[W](=[O])=[O].[O]=[W](=[O])=[O].[O]=[W](=[O])=[O]", "note": "[PTA, phosphotungstic acid]", "values": [
      {"measurement": "Thickness of cartilage assessed with the contrast agent", "setting": "[1]", "value": 110, "unit": "μm"},
      {"measurement": "X-ray absorption of background", "setting": "[1]", "value": "342 ± 64", "unit": "HU"},
      {"measurement": "X-ray absorption of cartilage", "setting": "[1]", "value": "3657 ± 253", "unit": "HU"},
      {"measurement": "Difference in X-ray absorption between cartilage and background", "setting": "[1]", "value": 10.7, "unit": "fold"}
    ]},
    {"compound": "CC(C)C[C@H](NC(=O)[C@H](CCCNC(=N)N)NC(=O)CNC(=O)[C@H](CCCNC(=N)N)NC(=O)[C@H](Cc1cc(I)c(O)c(I)c1)NC(=O)[C@@H](N)Cc1c[nH]c2ccccc12)C(=O)O", "note": "[compound 3] (H-W[Tyr(3,5-I2)]RGRL-OH)", "values": [
      {"measurement": "Solubility of pure peptide", "setting": "[2]", "value": "poor solubility"}
    ]},
    {"compound": "CC(C)C[C@H](NC(=O)[C@H](CCCNC(=N)N)NC(=O)CNC(=O)[C@H](CCCNC(=N)N)NC(=O)[C@H](Cc1cc(I)c(O)c(I)c1)NC(=O)[C@H](Cc1c[nH]c2ccccc12)NC(=O)[C@@H](N)Cc1cc(I)c(O)c(I)c1)C(=O)O", "note": "[compound 4] (H-[Tyr(3,5-I2)]W[Tyr(3,5-I2)]RGRL-OH)", "values": [
      {"measurement": "Solubility of pure peptide", "setting": "[2]", "value": "poor solubility"}
    ]},
    {"compound": "CC(C)C[C@H](NC(=O)[C@H](CCCCN)NC(=O)CNC(=O)[C@H](CCCCN)NC(=O)[C@H](Cc1ccc(O)cc1)NC(=O)[C@H](Cc1c[nH]c2ccccc12)NC(=O)COCCOCCNC(=O)[C@H](Cc1cc(I)c(O)c(I)c1)NC(=O)[C@@H](N)Cc1cc(I)c(O)c(I)c1)C(=O)O", "note": "[compound 12] (H-[Tyr(3,5-I2)][Tyr(3,5-I2)][AEEA]WYKGKL-OH)", "values": [
      {"measurement": "Solubility of pure peptide", "setting": "[2]", "value": "insoluble"}
    ]},
    {"compound": "CC(C)C[C@H](NC(=O)[C@H](CCCCN)NC(=O)CNC(=O)[C@H](CCCCN)NC(=O)[C@H](Cc1cc(I)c(O)c(I)c1)NC(=O)[C@@H](N)Cc1c[nH]c2ccccc12)C(=O)NCCOCCOCC(=O)N[C@@H](Cc1cc(I)c(O)c(I)c1)C(=O)NCC(=O)O", "note": "[compound 14] (H-W[Tyr(3,5-I2)]KGKL[AEEA][Tyr(3,5-I2)]G-OH)", "values": [
      {"measurement": "Solubility of pure peptide", "setting": "[2]", "value": "insoluble"}
    ]},
    {"compound": "C[C@H](O)C(=O)Nc1c(I)c(C(=O)NC(CO)CO)c(I)c(C(=O)NC(CO)CO)c1I", "note": "[iopamidol]", "values": [
      {"measurement": "Thickness of cartilage assessed with the contrast agent", "setting": "[1]", "value": 70, "unit": "μm"},
      {"measurement": "X-ray absorption of background", "setting": "[1]", "value": "875 ± 12", "unit": "HU"},
      {"measurement": "X-ray absorption of cartilage", "setting": "[1]", "value": "678 ± 29", "unit": "HU"},
      {"measurement": "Difference in X-ray absorption between cartilage and background", "setting": "[1]", "value": 0.8, "unit": "fold"}
    ]},
    {"compound": "CC(C)C[C@H](NC(=O)[C@H](CCCCN)NC(=O)CNC(=O)[C@H](CCCCN)NC(=O)[C@H](Cc1cc(I)c(O)c(I)c1)NC(=O)[C@H](Cc1c[nH]c2ccccc12)NC(=O)[C@@H](N)Cc1cc(I)c(O)c(I)c1)C(=O)O", "note": "[peptide 6] (H-[Tyr(3,5-I2)]W[Tyr(3,5-I2)]KGKL-OH)", "values": [
      {"measurement": "Solubility of pure peptide", "setting": "[2]", "value": "insoluble in solution"}
    ]},
    {"compound": "Ac-WYRGRL-DOTAM-Cy5.5 [targeting peptide conjugated to a macrocyclic DOTAM scaffold with a Cy5.5 fluorophore]", "values": [
      {"measurement": "Binding of probe to cartilage (Cy5.5 fluorescence histology)", "setting": "[3]", "value": "strong binding of the targeted probe to cartilage; also recorded: showed binding to cartilage"}
    ]},
    {"compound": "Ac-YRLGRW-DOTAM-Cy5.5 [scrambled control peptide-DOTAM-Cy5.5 probe]", "values": [
      {"measurement": "Binding of probe to cartilage (Cy5.5 fluorescence histology)", "setting": "[3]", "value": "Only targeted probe (F) showed binding to cartilage"}
    ]}
  ]
}
